Source: patent publication US10399966B2, “Compounds for treatment of trypanosomes and neurological pathogens and uses thereof” (The University of North Carolina at Chapel Hill, priority 2016, dated 2019)
Like-named read-outs stand apart in the source and are kept apart here.

Experiments:
[1] = Metabolic stability in mouse liver microsomes; type: in vitro ADME; settings: Table 12; 37° C., NADPH (1 mM), microsomes 0.5 mg/mL, test compounds 1.5 μM
Method: (§1) Metabolic stability was evaluated using liver microsomes derived from mouse and human sources. Microsomal incubations were carried out according to a protocol described previously (Wang et al., Antimicrob. Agents Chemother. 54:2507 (2010)) with modifications. Briefly, substrate stock solutions were prepared in DMSO and DMSO content was kept at 0.5% (v/v) in final incubations. Incubation mixtures ([…]), liver microsomes (0.5 mg/mL) from mouse (pool of 1000, CD-1 male mouse) or human (pool of 50, mixed gender) (XenoTech LLC, Lenexa, Kans.) in a phosphate buffer (100 mM, pH 7.4) containing 3.3 mM MgCl2. After a 5-minute pre-equilibration period at 37° C., reactions (in triplicate) were initiated by adding the NADPH cofactor (1 mM). For NADPH-independent reactions, the cofactor was replaced with water. Aliquots (10 μl) of the reaction mixtures were removed at 0, 15, 30, and 60 minutes and individually mixed with 200 μL of ice-cold acetonitrile containing internal standard. The mixtures were vortex-mixed, and precipitated protein was removed by centrifugation at 2,250×g for 15 min. The supernatant fractions were dried using a 96-well microplate evaporator (Apricot Designs Inc., Covina, Calif.) under N2 at 50° C. and reconstituted with 100 μL 50% methanol containing 0.1% trifluoroacetic acid before UPLC-MS/MS analysis. In vitro half-life (t1/2) was obtained by analyzing the substrate concentration vs. incubation time curve using the one-phase exponential decay model (GraphPad Prism® 5.0, San Diego, Calif.).

[2] = Metabolic stability in human liver microsomes; type: in vitro ADME; settings: Table 12; for Human microsomes, percentage of compound remaining: after 60 min (where t1/2 > 60 min); for half-life at 1.5 μM: both sexes, human, liver microsomes, pH 7.4, read-out: Human microsomes t1/2; for half-life at 1.5 μM / Human microsomes t1/2: 37° C., NADPH (1 mM), microsomes 0.5 mg/mL, test compounds 1.5 μM
Method: as §1

T. b. brucei = experiment: In vitro antitrypanosomal activity against T. brucei (growth inhibition); type: cell-based, Trypanosoma brucei; settings: Trypanosoma brucei; for EC90: read-out: T. brucei EC90
Method: Primary hits from the screen were further characterized using a dose-response assay format to determine the EC50. In parallel, the cytotoxicities of these compounds were determined against a proliferating human hepatoma cell line (Huh7). […] SI—CC50/EC50). The final set of confirmed T. brucei hits consisted of 1035 inhibitors. […] In vitro antitrypanosomal activities against T. b. rhodesiense (STIB9000) and cytotoxicities against L6 rat myoblast cells were measured following established protocols (Orhan et al., Mar. Drugs 8:47 (2010). […] All wells including negative controls contained a final of 0.4% DMSO. After incubation of the plates at 37° C. for 48 h, the parasite density was determined using the CellTiter-Glo reagent (Promega), a firefly luciferase assay system that measures the amount of cellular ATP present in plate wells.

human hepatocytes HepG2 = experiment: Cytotoxicity against HepG2 cells; settings: for EC50: Homo sapiens, HepG2, read-out: HepG2 EC50; for EC90: read-out: HepG2 EC90, concentration required to inhibit growth by 90%, human hepatocytes
[3] = tested on: human lymphocytes CRL-8155; experiment: Cytotoxicity against CRL-8155 cells; settings: human lymphoblasts; for EC50: read-out: CRL-8155 EC50, concentration required to inhibit growth by 50%; for EC90: read-out: CRL-8155 EC90, concentration required to inhibit growth by 90%
Method: The selectivity of each compound for the parasite over each of the two cell lines was calculated.

Trypanosoma cruzi = experiment: Efficacy against T. cruzi in vitro; type: cell-based; settings: Trypanosoma cruzi, Table 10; for EC50: read-out: T.cruzi EC50; for EC90: read-out: T.cruzi EC90
[4] = Distribution between mouse plasma and brain (brain penetration, ip); type: in vivo; settings: for Brain/plasma ratio / [compound]Brain / [compound]Plasma: Table 14, mice, single ip dose 5 mg/kg, one hour post-dose; for [compound]Brain / [compound]Plasma: ± SEM of 3 mice (compound 3: 6 mice); for Kp at 1 h / concentration at 1 h: mouse, intraperitoneal, 5 mg/kg; for Kp at 1 h: brain and plasma, read-out: Average brain/plasma ratio
Method: For distribution of compounds between mouse plasma and brain, mice (in groups of 3) were injected with test compounds (5 mg/kg ip) and sacrificed at the indicated times for collection of plasma and brain. Compound was dissolved in 0.4 mL of dosing solution (7% Tween 80, 3% ethanol, 5% DMSO, 0.9% saline) for ip injections. The brains were weighed and immediately frozen, then later homogenized in acetonitrile using a Dounce homogenizer. Prior to animal studies, recovery of test compound was carried out by adding a known amount to a mouse brain in the test extraction solvent and performing the homogenization. Compound recovery was determined by liquid chromatography/tandem mass spectrometry analysis relative to a standard compound amount. Blood was taken from the same mice in heparinized capillary tubes (Fisherbrand) for determination of compound concentration in plasma. The concentration of compound in the brain was obtained by dividing the moles of compound in the brain by the brain volume (obtained from the brain weight assuming 1 g is 1 mL) and correcting for the brain vasculature volume of 2.5% by weight.
Brain penetration studies (Table 14) were initially performed upon compounds 1, 2, and 3, but were expanded to include other compounds in order to explore the SAR of brain penetration. Groups of three mice were given single 5 mg/kg ip doses of the test compounds and were sacrificed 1 h post-dose.

[5] = Table 12, read-out: T. b. brucei EC50
[6] = Table 9, read-out: T. brucei EC50
[7] = Table 11, read-out: T. b. brucei EC50
[8] = brain, Table 7, groups of 3 mice, read-out: Average [compound] brain
[9] = plasma, Table 7, groups of 3 mice, read-out: Average [compound] plasma
[10] = Table 7, read-out: T. brucei EC50
[11] = brain, Table 8, groups of 3 mice (compound 3: ± SEM of 6 mice), read-out: Average [compound] brain
[12] = plasma, Table 8, groups of 3 mice (compound 3: ± SEM of 6 mice), read-out: Average [compound] plasma
[13] = Table 8, read-out: T. brucei EC50

SMILES	Mouse microsomes t1/2 [1]	melting point	EC50 (T. b. brucei; [5])	EC50 (T. b. brucei; [6])	EC90 (T. b. brucei; Table 9)	EC50 (human hepatocytes HepG2)	EC90 (human hepatocytes HepG2)	EC50 [3]	EC90 [3]	EC50 (Trypanosoma cruzi)	EC90 (Trypanosoma cruzi)	EC50 (T. b. brucei; [7])	Brain/plasma ratio [4]	[compound]Brain [4]	[compound]Plasma [4]	Human microsomes t1/2 [2]	other results
O=C(Nc1ccc2oc(-c3ccccc3)nc2c1)N1CCCCC1 [Compound 16, 2-Phenyl-5-N-piperidylamidobenzoxazole]	11 min	207 to 209 °C	2800 nM	2800 nM	9300 nM												Human microsomes, percentage of compound remaining [2]: 77%; half-life at 1.5 μM [2]: > 60 min
O=C(Nc1ccc2sc(-c3ccccc3)nc2c1)N1CCCCC1 [Compound 23, 2-Phenyl-5-(N-piperidylamido)benzothiazole]	17 min	230 to 232 °C	366 nM	366 nM	809 nM	> 50 µM	> 50 µM	> 50 µM	> 50 µM	826 nM	1070 nM	366 nM					Human microsomes, percentage of compound remaining [2]: 62%; half-life at 1.5 μM [2]: > 60 min
O=C(Nc1ccc2sc(-c3cccc(F)c3F)nc2c1)N1CCCC1 [Compound 5, 2-(2,3-Difluorophenyl)-5-(N-pyrrolidylamido)benzothiazole]		194 to 195 °C		183 nM	394 nM	> 50 µM	> 50 µM	> 50 µM	> 50 µM	578 nM	665 nM	183 nM	1.76 ± 0.032	2.31 ± 0.746 µM	1.3 ± 0.406 µM		Kp at 1 h ([4]; Table 7, groups of 3 mice): 1.76 ± 0.055; concentration at 1 h [4, 8]: 2310 ± 1290 nM; concentration at 1 h [4, 9]: 1300 ± 703 nM; EC50 (T. b. brucei; [10]): 183 nM
O=C(Nc1ccc2sc(-c3ccccc3)nc2c1)c1ccccc1 [Compound 17, 5-Benzamido-2-phenylbenzothiazole]	50 min		2380 nM	2380 nM	7740 nM												Human microsomes, percentage of compound remaining [2]: 53%; half-life at 1.5 μM [2]: > 60 min
O=C(Nc1ccc2sc(-c3ccc(F)c(F)c3)nc2c1)N1CCC(F)CC1 [Compound 13, 2-(3,4-Difluorophenyl)-5-(4-fluoro-N-piperidylamido)benzothiazole]		231.5 to 232 °C		341 nM	596 nM	> 50 µM	> 50 µM	> 50 µM	> 50 µM	1800 nM	1990 nM	341 nM	1.01 ± 0.081	2.52 ± 0.248 µM	2.51 ± 0.203 µM		Kp at 1 h ([4]; Table 8, groups of 3 mice): 1.01 ± 0.14; concentration at 1 h [4, 11]: 2530 ± 430 nM; concentration at 1 h [4, 12]: 2510 ± 352 nM; EC50 (T. b. brucei; [13]): 341 nM
O=C(Nc1ccc2sc(-c3cccc(F)c3)nc2c1)N1CCCC1 [Compound 6, 2-(3-Fluorophenyl)-5-(N-pyrrolidylamido)benzothiazole]	12 min	232 to 233 °C	158 nM	158 nM	391 nM	> 50 µM	> 50 µM	> 50 µM	> 50 µM	631 nM	697 nM	158 nM	1.01 ± 0.037	2.28 ± 0.532 µM	2.22 ± 0.461 µM	37 min	Kp at 1 h ([4]; Table 7, groups of 3 mice): 1.01 ± 0.064; concentration at 1 h [4, 8]: 2280 ± 920 nM; concentration at 1 h [4, 9]: 2220 ± 798 nM; EC50 (T. b. brucei; [10]): 158 nM
O=C(Nc1ccc2sc(-c3ccc(F)c(F)c3)nc2c1)N1CCCCC1 [Compound 12, 2-(3,4-Difluorophenyl)-5-(N-piperidylamido)benzothiazole]		232 to 233 °C		223 nM	282 nM	> 50 µM	> 50 µM	> 50 µM	> 50 µM	429 nM	912 nM	223 nM	0.510 ± 0.023	1.29 ± 0.156 µM	2.52 ± 0.185 µM		Kp at 1 h ([4]; Table 8, groups of 3 mice): 0.51 ± 0.04; concentration at 1 h [4, 11]: 1290 ± 270 nM; concentration at 1 h [4, 12]: 2520 ± 320 nM; EC50 (T. b. brucei; [13]): 223 nM
O=C(Nc1ccc2sc(-c3cccc(F)c3)nc2c1)N1CCCCC1 [Compound 29, 2-(3-Fluorophenyl)-5-(N-piperidylamido)benzothiazole]	11 min	216 to 217 °C	174 nM	174 nM	602 nM	> 50 µM	> 50 µM	> 50 µM	> 50 µM	320 nM	503 nM	174 nM				8.9 min	
O=C(Nc1ccc2sc(-c3ccccc3F)nc2c1)N1CCCCC1 [Compound 33, 2-(2-Fluorophenyl)-5-(N-piperidylamido)benzothiazole]		213 to 215 °C		935 nM	1140 nM	> 50 µM	> 50 µM	> 50 µM	> 50 µM	843 nM	1120 nM	935 nM					
O=C(Nc1ccc2sc(-c3ccccc3)nc2c1)N1CCCC1 [Compound 7, 2-Phenyl-5-(N-pyrrolidylamido)benzothiazole]	18 min	210 to 211 °C	325 nM	325 nM	817 nM	> 50 µM	> 50 µM	> 50 µM	> 50 µM	564 nM	861 nM	325 nM	1.24 ± 0.157	4.24 ± 0.698 µM	3.403 ± 0.328 µM	30 min	Kp at 1 h ([4]; Table 7, groups of 3 mice): 1.24 ± 0.272; concentration at 1 h [4, 8]: 4240 ± 1210 nM; concentration at 1 h [4, 9]: 3400 ± 569 nM; EC50 (T. b. brucei; [10]): 325 nM
O=C(Nc1ccc2oc(-c3ccccc3)nc2c1)c1ccccc1 [Compound 15, 5-Benzamido-2-phenylbenzoxazole]	17 min															60 min	EC50 (T. b. brucei; read-out: T. b. brucei EC50): > 10000 nM; EC50 (T. b. brucei; read-out: T. brucei EC50): > 10000 nM; EC90 (T. b. brucei): > 10000 nM
